These results are taken from doi:10.1101/2021.09.30.462449v1 (biorxiv, 2021).

As a reminder, the IC50 is the concentration that inhibits the measured activity by half. Higher therefore signals weaker potency.

This assay concerns the target PL^pro (Severe acute respiratory syndrome coronavirus 2, UniProt P0DTD1). Briefly: FRET peptide cleavage assay. It counts as biochemical.
As for `COc1ccc2nc3cc(Cl)ccc3c(Nc3cc(CN4CCCC4)c(O)c(CN4CCCC4)c3)c2c1` [compound 5, 4-[(6-chloro-2-methoxyacridin-9-yl)amino]-2,6-bis(pyrrolidin-1-ylmethyl)phenol], the IC50 was found to be 2.44 ± 0.53 µM.

Compound `COc1ccc2nc3cc(Cl)ccc3c(Nc3ccc(O)c(CN4CCCC4)c3)c2c1` [compound 4, 4-[(6-chloro-2-methoxyacridin-9-yl)amino]-2-(pyrrolidin-1-ylmethyl)phenol] registered an IC50 of 2.56 ± 0.28 µM.

Compound `COc1ccc2nc3cc(Cl)ccc3c(N3CCOCC3)c2c1` [compound 7, 6-chloro-2-methoxy-9-morpholin-4-ylacridine] displayed an IC50 of more than 20 µM.

In turn, `COc1ccc2nc3cc(Cl)ccc3c(O)c2c1` [compound 6, 6-chloro-2-methoxyacridin-9-ol] came in with a half-inhibitory concentration (IC50) of more than 20 µM.

With `COc1ccc2nc3cc(Cl)ccc3c(Nc3ccc(O)cc3)c2c1` [compound 2, 4-[(6-chloro-2-methoxyacridin-9-yl)amino]phenol], the IC50 is more than 20 µM.

Regarding `N#Cc1c(N2CCOCC2)ncc2cc3ccccc3nc12` [compound 9, 3-morpholin-4-ylbenzo[b]-1,6-naphthyridine-4-carbonitrile], the IC50 is more than 20 µM.

Consider `COc1ccc2nc3cc(Cl)ccc3c(Nc3cc(CN(C)C)c(O)c(CN(C)C)c3)c2c1` [compound 3, 4-[(6-chloro-2-methoxyacridin-9-yl)amino]-2,6-bis[(dimethylamino)methyl]phenol], for which the IC50 is 3.28 ± 0.4 µM.

`N#Cc1c(N2CCOCC2)ncc2c(=O)c3ccccc3[nH]c12` [compound 10, 3-morpholin-4-yl-10-oxo-5,10-dihydrobenzo[b]-1,6-naphthyridine-4-carbonitrile] gave an IC50 of more than 20 µM.
